Measurements from patent EP1743643A1, “New formulations of substituted pyrazoline compounds” (LABORATORIOS DEL DR. ESTEVE, S.A., priority 2005, dated 2007).

Experiments:
[1] = molecular target: T1, CB2-Receptor (Homo sapiens, UniProt P34972); assay: In-vitro determination of affinity to CB2 receptor (radioligand [3H]-CP55940); type: binding
T1 construct: purchased Receptor Biology, Inc
Method: (§1) The in-vitro determination of the affinity of the inventive substituted pyrazoline compounds to CB1/CB2-Rezeptors is carried out as described in the publication of Ruth A. Ross, Heather C. Brockie et al., "Agonist-inverse agonist characterization at CB1 and CB2 cannabinoid receptors of L-759633, L759656 and AM630", British Journal of Pharmacology, 126, 665-672, (1999), whereby the transfected human CB1 and CB2 receptors of Receptor Biology, Inc. are used. The radioligand used for both receptors is [^3H]-CP55940. The respective parts of the description is hereby incorporated by reference and forms part of the present disclosure.
(§2) The affinity of the inventive substituted pyrazoline compounds to CB1/CB2 receptors was determined as described above.

[2] = molecular target: T2, CB1-Receptor (Homo sapiens, UniProt P21554); assay: In-vitro determination of affinity to CB1 receptor (radioligand [3H]-CP55940); type: binding
T2 construct: purchased Receptor Biology, Inc
Method: as §1, §2

[3] = tested on: male mice B6 Lep ob/ob; assay: In-vivo testing for regulation of triglycerides in blood, obese mice on high fat diet; conditions: for triglicerides blood levels (result in words): obese mice fed with high fat diet
Source text: The study was done using six weeks old male mice B6 Lep ob/ob, obtained from Charles River (France). Mice were divided in 3 groups : I (control), II (vehicle), III (example 0).
The animals of the group I received the standard diet (D-12450B, Research Diets, NJ, USA).
The animals of the groups II and III were fed with a High Fat Diet (D-12492, Research Diets, NJ, USA), in both cases for 7 weeks (References 1 and 2).
The animals of the groups III were fed with a High Fat Diet (D-12492, Research Diets, NJ, USA), in both cases for 7 weeks (References 1 and 2).
At the end of the feeding period of 7 weeks, it was started the treatment period (14 days): Group II mice received the vehicle (10 ml/kg/day, po, of the aqueous solution of acacia gum, 5% WN). Group III was administered with 30 mg/kg/day, po, of the inventive compound 5-(4-chlorophenyl)-1-(2,4-dichlorophenyl)-4,5-dihydro-pyrazole-3-carboxylic acid according to Example 0. Group I didn't received any treatment. The three groups of mice had the same diet than in the previous period.
At the end of the 14 days period of treatment, the blood levels of triglicerides of the animals were determined.
The analysis of the whole blood samples was done using test strips "Lipid panel" and the photometric Analyzer Cardio-Check Test System, from PA Instruments Polymer Technology Systems Indianapolis, IN-46268, USA (Distributed in Spain by Novalab Iberica S.A.L, Madrid, Spain).

T1 sequence (P34972 whole entry): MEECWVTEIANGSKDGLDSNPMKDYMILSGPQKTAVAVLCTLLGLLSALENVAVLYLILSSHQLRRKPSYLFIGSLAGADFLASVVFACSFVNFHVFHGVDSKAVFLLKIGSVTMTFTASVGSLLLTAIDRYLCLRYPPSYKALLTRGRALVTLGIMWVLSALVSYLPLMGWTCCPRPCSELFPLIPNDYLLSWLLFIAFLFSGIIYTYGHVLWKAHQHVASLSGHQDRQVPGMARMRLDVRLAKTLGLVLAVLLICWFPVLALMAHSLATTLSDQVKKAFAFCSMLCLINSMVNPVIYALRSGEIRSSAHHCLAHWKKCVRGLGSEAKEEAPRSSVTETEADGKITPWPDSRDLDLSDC
T2 sequence (P21554 whole entry): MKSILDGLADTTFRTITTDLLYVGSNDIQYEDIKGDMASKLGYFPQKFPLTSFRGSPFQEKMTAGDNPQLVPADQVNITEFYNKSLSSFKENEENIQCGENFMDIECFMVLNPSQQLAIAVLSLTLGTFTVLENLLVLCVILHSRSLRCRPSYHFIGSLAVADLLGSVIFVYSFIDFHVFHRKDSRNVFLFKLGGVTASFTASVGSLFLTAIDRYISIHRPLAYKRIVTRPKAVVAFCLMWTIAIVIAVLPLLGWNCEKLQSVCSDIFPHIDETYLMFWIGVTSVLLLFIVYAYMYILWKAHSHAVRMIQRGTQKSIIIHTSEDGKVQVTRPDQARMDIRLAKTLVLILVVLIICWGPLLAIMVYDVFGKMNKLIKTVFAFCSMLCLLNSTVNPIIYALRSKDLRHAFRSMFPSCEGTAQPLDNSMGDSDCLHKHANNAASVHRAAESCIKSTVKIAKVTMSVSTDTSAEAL

Row | SMILES | Ki [1] [nM] | Ki [2] [nM] | Triglicerides, whole blood levels (mg/dl) ([3]; High Fat diet, 30 mg/kg/day po, 14 days of treatment, B6 Lep ob/ob mice) | triglicerides blood levels (result in words) [3] | triglicerides blood levels (result in words) ([3]; listed as Example 8) | Relative levels ([3]; triglicerides relative to Group I (standard diet, 100%), High Fat diet, 30 mg/kg/day po, 14 days) [%]
1 | O=C(NN1CCCCC1)C1=NN(c2ccc(Cl)cc2Cl)C(c2ccc(Cl)cc2)C1 (stereo not shown) [Example 1, N-piperidinyl-5-(4-chlorophenyl)-1-(2,4-dichlorophenyl)-4,5-dihydro-1H-pyrazole-3-carboxamide] | > 1000 | < 25 |  |  |  | 
2 | O=C(O)C1=NN(c2ccc(Cl)cc2Cl)C(c2ccc(Cl)cc2)C1 (stereo not shown) [Example 0, 5-(4-chlorophenyl)-1-(2,4-dichlorophenyl)-4,5-dihydro-pyrazole-3-carboxylic acid] |  |  | 67.5 (N.S.) mg/dl | inhibitor of high blood levels of triglicerides | improved the triglicerides blood levels | 110.6
3 | O=C(C1=NN(c2ccc(Cl)cc2Cl)C(c2ccc(Cl)cc2)C1)N1CCCCC1 (stereo not shown) [Example 5, [5-(4-Chloro-phenyl)-1-(2,4-dichloro-phenyl)-4,5-dihydro-1H-pyrazol-3-yl]-piperidin-1-yl-methanone] | ~1000 |  |  |  |  | 
